Target: T1, mouse TRPM3α2 (mTRPM3) ion channel (Mus musculus, UniProt J9SQF3)
T1 construct: expressed in transfected cells; host or cells: flip-in HEK293
Test: TRPM3 ion channel driven Ca2+ uptake, Fluo-4 AM assay, PS-stimulated (mTRPM3)
Type: cell-based
Details: TRPM3 overexpressing flip-in HEK293 cells stimulated with Pregnenolone sulfate (PS) 50 μM, activity ranges A, B, C
Outline: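 Flp-In HEK293 cells overexpressing mTRPM3α2 were added, in Ca²⁺-free Krebs, to wells already holding compound and 50 μM pregnenolone sulfate in Ca²⁺-containing Krebs. Fluo-4 AM fluorescence (ex 485/em 535 nm) was read immediately. Percent inhibition was computed from RFU relative to PS/vehicle wells and a positive-control inhibitor.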

T1 sequence (J9SQF3 1-1709 isoform J9SQF3-12): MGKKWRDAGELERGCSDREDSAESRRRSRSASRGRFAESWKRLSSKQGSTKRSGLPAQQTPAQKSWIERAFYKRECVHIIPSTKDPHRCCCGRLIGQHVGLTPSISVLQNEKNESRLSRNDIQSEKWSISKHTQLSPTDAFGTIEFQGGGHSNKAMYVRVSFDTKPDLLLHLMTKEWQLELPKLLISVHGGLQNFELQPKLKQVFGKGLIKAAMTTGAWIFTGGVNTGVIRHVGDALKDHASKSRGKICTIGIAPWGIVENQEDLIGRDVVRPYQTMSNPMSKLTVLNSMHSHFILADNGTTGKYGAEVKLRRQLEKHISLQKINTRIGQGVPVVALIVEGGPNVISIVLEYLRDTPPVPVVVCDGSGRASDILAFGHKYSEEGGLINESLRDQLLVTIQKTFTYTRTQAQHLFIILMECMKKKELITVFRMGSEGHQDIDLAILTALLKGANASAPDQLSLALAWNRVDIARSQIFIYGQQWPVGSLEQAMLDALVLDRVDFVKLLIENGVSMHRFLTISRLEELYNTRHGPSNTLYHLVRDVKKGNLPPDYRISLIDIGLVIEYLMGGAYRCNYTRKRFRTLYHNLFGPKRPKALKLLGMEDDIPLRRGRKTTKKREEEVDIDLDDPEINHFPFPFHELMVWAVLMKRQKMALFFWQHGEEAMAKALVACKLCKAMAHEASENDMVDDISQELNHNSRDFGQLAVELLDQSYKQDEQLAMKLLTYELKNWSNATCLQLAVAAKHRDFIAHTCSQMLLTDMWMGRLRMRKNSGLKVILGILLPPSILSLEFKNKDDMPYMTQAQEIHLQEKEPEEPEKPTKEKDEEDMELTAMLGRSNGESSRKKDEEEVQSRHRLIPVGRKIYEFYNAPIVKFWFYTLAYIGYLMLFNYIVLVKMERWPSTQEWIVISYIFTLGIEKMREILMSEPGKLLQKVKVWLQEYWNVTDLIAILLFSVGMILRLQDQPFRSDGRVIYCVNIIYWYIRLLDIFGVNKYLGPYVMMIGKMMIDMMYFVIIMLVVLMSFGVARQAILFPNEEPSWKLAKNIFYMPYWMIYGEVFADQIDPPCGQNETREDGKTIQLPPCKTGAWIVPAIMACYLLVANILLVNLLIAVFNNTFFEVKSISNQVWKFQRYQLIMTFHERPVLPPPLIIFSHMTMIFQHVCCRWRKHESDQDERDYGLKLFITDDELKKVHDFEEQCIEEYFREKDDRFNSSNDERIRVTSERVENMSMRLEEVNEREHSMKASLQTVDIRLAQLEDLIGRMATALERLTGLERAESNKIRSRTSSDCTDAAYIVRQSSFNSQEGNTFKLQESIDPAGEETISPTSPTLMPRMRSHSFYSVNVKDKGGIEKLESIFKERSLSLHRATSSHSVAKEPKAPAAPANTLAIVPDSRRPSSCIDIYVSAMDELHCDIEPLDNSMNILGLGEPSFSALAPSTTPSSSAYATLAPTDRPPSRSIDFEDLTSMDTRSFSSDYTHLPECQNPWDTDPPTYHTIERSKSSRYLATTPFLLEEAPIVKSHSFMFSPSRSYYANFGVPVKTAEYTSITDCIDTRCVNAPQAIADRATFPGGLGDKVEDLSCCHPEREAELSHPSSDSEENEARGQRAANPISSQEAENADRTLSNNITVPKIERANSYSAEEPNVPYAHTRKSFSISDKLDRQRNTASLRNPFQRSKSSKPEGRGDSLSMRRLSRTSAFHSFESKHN

Compound | IC50 [µM]
Cc1oc2ccc(OCc3cccc(C(F)(F)F)c3)cc2c1C(=O)NC1CCN(C)CC1 [Cpd 232, 2-methyl-N-(1-methylpiperidin-4-yl)-5-((3-(trifluoromethyl)benzyl)oxy)benzofuran-3-carboxamide] | 1 to 20
Cc1oc2ccc(OCc3ccccc3C(F)(F)F)cc2c1C(=O)NC1CCN(C)CC1 [Cpd 233, 2-methyl-N-(1-methylpiperidin-4-yl)-5-((2-(trifluoromethyl)benzyl)oxy)benzofuran-3-carboxamide] | 1 to 20
Cc1oc2ccc(OCc3ccc(C(F)(F)F)cc3)cc2c1C(=O)NC1CCN(C)CC1 [Cpd 234, 2-methyl-N-(1-methylpiperidin-4-yl)-5-((4-(trifluoromethyl)benzyl)oxy)benzofuran-3-carboxamide] | 1 to 20
Cc1oc2ccc(OCc3ccccc3)cc2c1C(=O)N[C@H]1C[C@H]2C(=O)N(C)CC(=O)N2C1 [Cpd 235, 5-(benzyloxy)-2-methyl-N-((7S,8aS)-2-methyl-1,4-dioxooctahydropyrrolo[1,2-a]pyrazin-7-yl)benzofuran-3-carboxamide] | 1 to 20
Cc1oc2ccc(OCc3ccccc3)cc2c1C(=O)N1CCCC(C(=O)NCC(C)C)C1 (stereo not drawn) [Cpd 236, 1-(5-(benzyloxy)-2-methylbenzofuran-3-carbonyl)-N-isobutylpiperidine-3-carboxamide] | > 20
Cc1oc2ccc(OCc3ccccc3)cc2c1C(=O)N1CCC(C(=O)OC(C)(C)C)CC1 [Cpd 237, tert-butyl 1-(5-(benzyloxy)-2-methylbenzofuran-3-carbonyl)piperidine-4-carboxylate] | > 20
Cc1oc2ccc(OCc3ccccc3)cc2c1C(=O)N[C@@H]1CCN(C(=O)OC(C)(C)C)C1 [Cpd 238, tert-butyl (R)-3-(5-(benzyloxy)-2-methylbenzofuran-3-carboxamido)pyrrolidine-1-carboxylate] | > 20
Cc1oc2ccc(OCc3ccccc3)cc2c1C(=O)N[C@H]1CCN(C(=O)OC(C)(C)C)C1 [Cpd 239, tert-butyl (S)-3-(5-(benzyloxy)-2-methylbenzofuran-3-carboxamido)pyrrolidine-1-carboxylate] | 1 to 20
Cc1oc2ccc(OCc3ccccc3C(F)(F)F)cc2c1C(=O)NC1CNCC1(F)F (stereo not drawn) [Cpd 240, N-(4,4-difluoropyrrolidin-3-yl)-2-methyl-5-((2-(trifluoromethyl)benzyl)oxy)benzofuran-3-carboxamide] | < 1
Cc1oc2ccc(OCc3ccccc3)cc2c1C(=O)NC1CCN(Cc2ccccc2)CC1 [Cpd 241, 5-(benzyloxy)-N-(1-benzylpiperidin-4-yl)-2-methylbenzofuran-3-carboxamide] | 1 to 20
Cc1oc2ccc(OCc3ccccc3S(C)(=O)=O)cc2c1C(=O)NC1CCN(C)CC1 [Cpd 242, 2-methyl-N-(1-methylpiperidin-4-yl)-5-((2-(methylsulfonyl)benzyl)oxy)benzofuran-3-carboxamide] | > 20
Cc1oc2ccc(OCc3ccccc3)cc2c1C(=O)N1CCCC(c2nc(C(C)C)no2)C1 (stereo not drawn) [Cpd 243, (5-(benzyloxy)-2-methylbenzofuran-3-yl)(3-(3-isopropyl-1,2,4-oxadiazol-5-yl)piperidin-1-yl)-methanone] | > 20
Cc1oc2ccc(OCc3cccc(OC(F)(F)F)c3)cc2c1C(=O)NC1CCN(C)CC1 [Cpd 244, 2-methyl-N-(1-methylpiperidin-4-yl)-5-((3-(trifluoromethoxy)benzyl)oxy)benzofuran-3-carboxamide] | 1 to 20
Cc1oc2ccc(OCc3ccccc3N3CCN(C)CC3)cc2c1C(=O)NC1CCNC1=O (stereo not drawn) [Cpd 245, 2-methyl-5-((2-(4-methylpiperazin-1-yl)benzyl)oxy)-N-(2-oxopyrrolidin-3-yl)benzofuran-3-carboxamide] | > 20
Cc1oc2ccc(OCc3ccccc3)cc2c1C(=O)NC1(CNC(=O)OC(C)(C)C)CCC1 [Cpd 246, tert-butyl ((1-(5-(benzyloxy)-2-methylbenzofuran-3-carboxamido)cyclobutyl)methyl)carbamate] | 1 to 20
Cc1oc2ccc(OCc3ccccc3)cc2c1C(=O)NC1CCCN(C(=O)OC(C)(C)C)C1 (stereo not drawn) [Cpd 247, tert-butyl 3-(5-(benzyloxy)-2-methylbenzofuran-3-carboxamido)piperidine-1-carboxylate] | > 20
Cc1oc2ccc(OCc3ccccc3)cc2c1C(=O)N1CCC(NC(=O)OC(C)(C)C)CC1 [Cpd 248, tert-butyl (1-(5-(benzyloxy)-2-methylbenzofuran-3-carbonyl)piperidin-4-yl)carbamate] | > 20
Cc1oc2ccc(OCc3ccccc3)cc2c1C(=O)NC1CCN(C(=O)OC(C)(C)C)CC1 [Cpd 249, tert-butyl 4-(5-(benzyloxy)-2-methylbenzofuran-3-carboxamido)piperidine-1-carboxylate] | 1 to 20

Compound | IC50 [µM]
Cc1oc2ccc(OCc3ccccc3OCCN(C)C)cc2c1C(=O)NC1CCN(C)CC1 [Cpd 250, 5-((2-(2-(dimethylamino)ethoxy)benzyl)oxy)-2-methyl-N-(1-methylpiperidin-4-yl)benzofuran-3-carboxamide] | > 20
Cc1oc2ccc(OCc3ccccc3)cc2c1C(=O)NC1CCN(C(=O)OC(C)(C)C)C(C)C1 (stereo not drawn) [Cpd 252, tert-butyl cis-4-(5-(benzyloxy)-2-methylbenzofuran-3-carboxamido)-2-methylpiperidine-1-carboxylate] | 1 to 20
Cc1oc2ccc(OCc3ccccc3)cc2c1C(=O)NCC1CCN(C(=O)OC(C)(C)C)CC1 [Cpd 253, tert-butyl 4-((5-(benzyloxy)-2-methylbenzofuran-3-carboxamido)methyl)piperidine-1-carboxylate] | > 20
Cc1oc2ccc(OCc3cccc(F)c3F)cc2c1C(=O)N[C@H]1CCN(C(=O)OC(C)(C)C)C1 [Cpd 256, tert-butyl (S)-3-(5-((2,3-difluorobenzyl)oxy)-2-methylbenzofuran-3-carboxamido)pyrrolidine-1-carboxylate] | 1 to 20
Cc1oc2ccc(OCc3c(F)cccc3F)cc2c1C(=O)N[C@H]1CCN(C(=O)OC(C)(C)C)C1 [Cpd 257, tert-butyl (S)-3-(5-((2,6-difluorobenzyl)oxy)-2-methylbenzofuran-3-carboxamido)pyrrolidine-1-carboxylate] | 1 to 20
Cc1oc2ccc(OCc3ccccc3)cc2c1C(=O)N[C@H]1CC2CC[C@H](C1)N2C(=O)OC(C)(C)C [Cpd 258, tert-butyl (1R,3s,5S)-3-(5-(benzyloxy)-2-methylbenzofuran-3-carboxamido)-8-azabicyclo-[3.2.1]octane-8-carboxylate] | < 1
Cc1oc2ccc(OCc3ccccc3)cc2c1C(=O)N[C@H]1C[C@@H]2CN(C(=O)OC(C)(C)C)C[C@@H]2C1 [Cpd 259, tert-butyl trans-5-(5-(benzyloxy)-2-methylbenzofuran-3-carboxamido)hexahydrocyclopenta-[c]pyrrole-2(1H)-carboxylate] | 1 to 20
Cc1oc2ccc(OCc3ccccc3COC3CCCCO3)cc2c1C(=O)NC1CCN(C)CC1 (stereo not drawn) [Cpd 260, 2-methyl-N-(1-methylpiperidin-4-yl)-5-((2-(((tetrahydro-2H-pyran-2-yl)oxy)methyl)benzyl)oxy)benzofuran-3-carboxamide] | 1 to 20
Cc1oc2ccc(OCc3cccc(CNC(=O)OC(C)(C)C)c3)cc2c1C(=O)NC1CCNC1=O (stereo not drawn) [Cpd 261, tert-butyl (3-(((2-methyl-3-((2-oxopyrrolidin-3-yl)carbamoyl)benzofuran-5-yl)oxy)methyl)-benzyl)carbamate] | > 20
Cc1oc2ccc(OCc3ccccc3)cc2c1C(=O)NC1(CO)CCN(C(=O)OC(C)(C)C)CC1 [Cpd 262, tert-butyl 4-(5-(benzyloxy)-2-methylbenzofuran-3-carboxamido)-4-(hydroxymethyl)piperidine-1-carboxylate] | 1 to 20
Cc1oc2ccc(OCc3ccccc3)cc2c1C(=O)NC1CCN(C(=O)OC(C)(C)C)CC1(F)F (stereo not drawn) [Cpd 263, tert-butyl 4-(5-(benzyloxy)-2-methylbenzofuran-3-carboxamido)-3,3-difluoropiperidine-1-carboxylate] | < 1
Cc1oc2ccc(OCc3ccccc3)cc2c1C(=O)N[C@@H]1C[C@H]2COC[C@@H](C1)N2C(=O)OC(C)(C)C [Cpd 265, tert-butyl (1R,5S,7r)-7-(5-(benzyloxy)-2-methylbenzofuran-3-carboxamido)-3-oxa-9-azabicyclo-[3.3.1]nonane-9-carboxylate] | > 20
Cc1oc2ccc(OCc3ccccc3F)cc2c1C(=O)NC1(C(N)=O)COC1 [Cpd 309, N-(3-carbamoyloxetan-3-yl)-5-((2-fluorobenzyl)oxy)-2-methylbenzofuran-3-carboxamide] | < 1
Cc1oc2ccc(OCc3ccccc3F)cc2c1C(=O)NC1(CO)COC1 [Cpd 310, 5-((2-fluorobenzyl)oxy)-N-(3-(hydroxymethyl)oxetan-3-yl)-2-methylbenzofuran-3-carboxamide] | < 1
Cc1oc2ccc(OCc3ccccc3F)cc2c1C(=O)NC(C)(CO)CO [Cpd 312, N-(1,3-dihydroxy-2-methylpropan-2-yl)-5-((2-fluorobenzyl)oxy)-2-methylbenzofuran-3-carboxamide] | < 1
Cc1oc2ccc(OCc3ccccc3F)cc2c1C(=O)NC(C)(C)CO [Cpd 313, 5-((2-fluorobenzyl)oxy)-N-(1-hydroxy-2-methylpropan-2-yl)-2-methylbenzofuran-3-carboxamide] | < 1
Cc1oc2ccc(OCc3ccccc3F)cc2c1C(=O)NC(C)(C)C(N)=O [Cpd 315, N-(1-amino-2-methyl-1-oxopropan-2-yl)-5-((2-fluorobenzyl)oxy)-2-methylbenzofuran-3-carboxamide] | < 1
Cc1oc2ccc(OC(C)(C)c3ccccc3)cc2c1C(=O)NC1(CO)CCOCC1 [Cpd 316, N-(4-(hydroxymethyl)tetrahydro-2H-pyran-4-yl)-2-methyl-5-((2-phenylpropan-2-yl)oxy)benzofuran-3-carboxamide] | < 1

Source: patent publication US20230391739A1, “ARYL DERIVATIVES FOR TREATING TRPM3 MEDIATED DISORDERS” (Katholieke Universiteit Leuven, priority 2020, published 2023)
